What is called IC50 is the concentration needed to halve the response being measured.

Experiment [1] concerns the target T1, human LPA1 (Homo sapiens, UniProt Q92633).
T1 construct: the full-length cDNA for human LPA1 was obtained by PCR of the reverse transcription reaction; expressed in transfected cells
Description: LPA1 calcium flux assay (HLPA1 Ca Flux). The following applies: Human LPA1 expressing CHO cells, stimulated with 10 nM LPA. Type of experiment: cell-based. The protocol: A 1.1 kb cDNA encoding the human LPA1 receptor was cloned from human lung. Human lung RNA (Clontech Laboratories, Inc. USA) was reverse transcribed using the RETROscript kit (Ambion, Inc.) and the full-length cDNA for human LPA1 was obtained by PCR of the reverse transcription reaction. The nucleotide sequence of the cloned human LPA1 was determined by sequencing and confirmed to be identical to the published human LPA1 sequence (An et al. Biochem. Biophys. Res. Commun. 231:619 (1997). The cDNA was cloned into the pcDNAS/FRT expression plasmid and transfected in CHO cells using lipofectamine 2000 (Invitrogen Corp., USA). Clones stably expressing human LPA1 were selected using hygromycin and identified as cells that show Ca-influx in response to LPA.
(§1) Human LPA1 or LPA3 expressing CHO cells are seeded at 20,000-45,000 cells per well in a 96-well poly-D-lysine coated plate one or two days before the assay. Prior to the assay, the cells are washed once with PBS and then cultured in serum-free media overnight. On the day of the assay, a calcium indicator dye (Calcium 4, Molecular Devices) in assay buffer (HBSS with Ca^2+ and Mg^2+ and containing 20 mM Hepes and 0.3% fatty-acid free human serum albumin) is added to each well and incubation continued for 1 hour at 37° C. 10 μl of test compounds in 2.5% DMSO are added to the cells and incubation continued at room temperature for 30 minutes. Cells are the stimulated by the addition of 10 nM LPA and intracellular Ca^2+ measured using the Flexstation 3 (Molecular Devices). IC50s are determined using Graphpad prism analysis of drug titration curves.

Experiment [2] addresses T2, human LPA3 (Homo sapiens, UniProt Q9UBY5).
T2 construct: The full-length cDNA fragment for human LPA3 was obtained by PCR from the vector; expressed in transfected cells; cDNA from the Missouri S&T cDNA Resource Center
T2 sequence (Q9UBY5 1-353): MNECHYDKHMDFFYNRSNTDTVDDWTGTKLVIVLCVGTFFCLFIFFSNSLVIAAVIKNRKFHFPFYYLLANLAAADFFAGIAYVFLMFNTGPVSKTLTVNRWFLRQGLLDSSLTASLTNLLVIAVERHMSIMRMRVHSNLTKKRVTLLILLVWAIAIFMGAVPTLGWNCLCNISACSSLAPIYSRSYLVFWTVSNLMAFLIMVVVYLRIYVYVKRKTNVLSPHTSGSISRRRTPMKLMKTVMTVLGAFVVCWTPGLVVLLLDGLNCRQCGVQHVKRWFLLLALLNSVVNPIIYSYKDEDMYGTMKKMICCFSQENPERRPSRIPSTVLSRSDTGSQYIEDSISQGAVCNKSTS
Description: LPA3 calcium flux assay. Type of experiment: cell-based. The following applies: Human LPA3 expressing CHO cells, stimulated with 10 nM LPA; read-out: HLPA3 Ca Flux IC50. The protocol: A vector containing the human LPA3 receptor cDNA was obtained from the Missouri S&T cDNA Resource Center (www.cdna.org). The full-length cDNA fragment for human LPA3 was obtained by PCR from the vector. The nucleotide sequence of the cloned human LPA3 was determined by sequencing and confirmed to be identical to the published human LPA3 sequence (NCBI accession number NM 012152). The cDNA was cloned into the pcDNA5/FRT expression plasmid and transfected in CHO cells using lipofectamine 2000 (Invitrogen Corp., USA). Clones stably expressing human LPA3 were selected using hygromycin and identified as cells that show Ca-influx in response to LPA.
as §1
On the technique in general: Calcium flux is commonly read through the fluorescence of an indicator in the cells.

T1 sequence (Q92633 whole entry): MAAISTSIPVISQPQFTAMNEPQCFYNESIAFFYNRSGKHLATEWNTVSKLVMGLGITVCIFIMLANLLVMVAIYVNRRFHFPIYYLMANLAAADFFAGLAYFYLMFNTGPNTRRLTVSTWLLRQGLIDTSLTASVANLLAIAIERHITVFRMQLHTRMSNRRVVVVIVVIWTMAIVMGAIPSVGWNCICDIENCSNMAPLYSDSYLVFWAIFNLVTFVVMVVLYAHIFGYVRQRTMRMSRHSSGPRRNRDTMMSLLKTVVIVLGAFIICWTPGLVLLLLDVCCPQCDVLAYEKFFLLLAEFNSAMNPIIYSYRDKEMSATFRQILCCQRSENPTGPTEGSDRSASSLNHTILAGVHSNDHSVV

Turning to `Cc1noc(-c2ccc(-c3ccc(CC(=O)O)cc3)cc2)c1NC(=O)OC(C)c1ccccc1C(F)(F)F` (stereo not shown) [Compound 1-23, (4′-{3-Methyl-4-[1-(2-trifluoromethyl-phenyl)-ethoxycarbonylamino]-isoxazol-5-yl}-biphenyl-4-yl)-acetic acid], the values for the half-inhibitory concentration (IC50) in experiment [1] and in experiment [2] were less than 300 nM and 1000 to 50000 nM, respectively.
For `Cc1noc(-c2ccc(-c3ccc(C(C)(C)C(=O)O)cn3)cc2)c1NC(=O)OC(C)c1ccccc1F` (stereo not shown) [Compound 1-87, 2-[6-(4-{4-[1-(2-Fluoro-phenyl)-ethoxycarbonylamino]-3-methyl-isoxazol-5-yl}-phenyl)-pyridin-3-yl]-2-methyl-propionic acid], in that order: less than 300 nM and 1000 to 50000 nM.
Regarding `Cc1noc(-c2ccc(-c3nc(C(=O)O)cs3)cc2)c1NC(=O)OC(C)c1ccccc1Cl` (stereo not shown) [Compound 1-93, 2-(4-{4-[1-(2-Chloro-phenyl)-ethoxycarbonylamino]-3-methyl-isoxazol-5-yl}-phenyl)-thiazole-4-carboxylic acid], the half-maximal inhibitory concentration (IC50) was less than 300 nM in experiment [1] and 1000 to 50000 nM in experiment [2].
For `Cc1noc(-c2ccc(-c3ccc(C(=O)O)cc3)cc2)c1NC(=O)O[C@H](C)c1ccccc1` [Compound 1-122], in that order: less than 300 nM and 1000 to 50000 nM.
For `Cc1noc(-c2ccc(COc3cccc(C(=O)O)c3)cc2)c1NC(=O)OC(C)c1ccccc1Cl` (stereo not shown) [Compound 1-12, 3-(4-{4-[1-(2-Chloro-phenyl)-ethoxycarbonylamino]-3-methyl-isoxazol-5-yl}-benzyloxy)-benzoic acid], in that order: less than 300 nM and 1000 to 50000 nM.
For `Cc1noc(-c2ccc(-c3ccc(CC(=O)O)cc3)c(Cl)c2)c1NC(=O)O[C@H](C)c1ccccc1Cl` [Compound 1-131, (2′-Chloro-4′-{4-[(R)-1-(2-chloro-phenyl)-ethoxycarbonylamino]-3-methyl-isoxazol-5-yl}-biphenyl-4-yl)-acetic acid], in that order: less than 300 nM and 1000 to 50000 nM.
In the case of `Cc1noc(-c2ccc(-c3cncc(CC(=O)O)c3)cc2)c1NC(=O)OC(C)c1ccccc1Cl` (stereo not shown) [Compound 1-63, [5-(4-{4-[1-(2-Chloro-phenyl)-ethoxycarbonylamino]-3-methyl-isoxazol-5-yl}-phenyl)-pyridin-3-yl]-acetic acid], the results for the concentration for half-maximal inhibition (IC50) in experiment [1] and in experiment [2] were less than 300 nM and 1000 to 50000 nM, respectively.
Regarding `Cc1noc(-c2cccc(C3=CCC(C(=O)O)CC3)c2)c1NC(=O)OC(C)c1ccccc1Cl` (stereo not shown) [Compound 1-45, 4-(3-{4-[1-(2-Chloro-phenyl)-ethoxycarbonylamino]-3-methyl-isoxazol-5-yl}-phenyl)-cyclohex-3-enecarboxylic acid], the half-inhibitory concentration (IC50) in experiment [1] was less than 300 nM; in experiment [2], greater than 50000 nM.
For `Cc1noc(-c2ccc(-c3ccccc3CC(=O)O)cc2)c1NC(=O)OC(C)c1ccccc1Cl` (stereo not shown) [Compound 1-57, (4′-{4-[1-(2-Chloro-phenyl)-ethoxycarbonylamino]-3-methyl-isoxazol-5-yl}-biphenyl-2-yl)-acetic acid], in that order: less than 300 nM and 1000 to 50000 nM.
For `Cc1noc(-c2ccc(-c3ccc(CC(=O)O)cc3)cc2)c1NC(=O)O[C@@H](C)c1ccccc1Cl` [Compound 1-112, (4′-{4-[(S)-1-(2-Chloro-phenyl)-ethoxycarbonylamino]-3-methyl-isoxazol-5-yl}-biphenyl-4-yl)-acetic acid], in that order: 300 to 1000 nM and 1000 to 50000 nM.
`Cc1noc(-c2ccc(-c3ccc(CC(=O)O)cc3)cc2Cl)c1NC(=O)O[C@H](C)c1ccccc1Cl` [Compound 1-129, (3′-Chloro-4′-{4-[(R)-1-(2-chloro-phenyl)-ethoxycarbonylamino]-3-methyl-isoxazol-5-yl}-biphenyl-4-yl)-acetic acid]: the IC50 in experiment [1] was less than 300 nM; in experiment [2], 1000 to 50000 nM.
In the case of `COC(=O)Cc1cccc(Oc2ccc(-c3onc(C)c3NC(=O)O[C@H](C)c3ccccc3F)cc2)c1` [Compound 1-95, [3-(4-{4-[1-(2-Fluoro-phenyl)-ethoxycarbonylamino]-3-methyl-isoxazol-5-yl}-phenoxy)-phenyl]acetic acid methyl ester], the results for the half-inhibitory concentration (IC50) in experiment [1] and in experiment [2] were less than 300 nM and 1000 to 50000 nM, respectively.
`Cc1noc(-c2ccc(-c3ccc(CCC(=O)O)cc3)cc2)c1NC(=O)OC(C)c1ccccc1Cl` (stereo not shown) [Compound 1-62, 3-(4′-{4-[1-(2-Chloro-phenyl)-ethoxycarbonylamino]-3-methyl-isoxazol-5-yl}-biphenyl-4-yl)-propionic acid]: the half-inhibitory concentration (IC50) in experiment [1] was less than 300 nM; in experiment [2], 1000 to 50000 nM.
For `Cc1noc(-c2ccc(-c3ccc(C(C)C(=O)O)cc3)cc2)c1NC(=O)O[C@H](C)c1ccccc1Cl` (single isomer, unassigned) [Compound 1-128], in that order: less than 300 nM and 1000 to 50000 nM.
For the molecule `Cc1noc(-c2ccc(CSc3ccccc3CC(=O)O)cc2)c1NC(=O)OC(C)c1ccccc1Cl` (stereo not shown) [Compound 1-19, [2-(4-{4-[1-(2-Chloro-phenyl)-ethoxycarbonylamino]-3-methyl-isoxazol-5-yl}-benzylsulfanyl)-phenyl]acetic acid], the IC50 was less than 300 nM in experiment [1] and 1000 to 50000 nM in experiment [2].
Consider `Cc1noc(-c2ccc(-c3ccc(CC(=O)O)cc3)c(F)c2)c1NC(=O)O[C@H](C)c1ccccc1Cl` [Compound 1-132, (4′-{4-[(R)-1-(2-Chloro-phenyl)-ethoxycarbonylamino]-3-methyl-isoxazol-5-yl}-2′-fluoro-biphenyl-4-yl)-acetic acid], for which the figures for the IC50 in experiment [1] and in experiment [2] were less than 300 nM and 1000 to 50000 nM, respectively.
For `Cc1noc(-c2ccc(CS(=O)(=O)c3ccccc3CC(=O)O)cc2)c1NC(=O)OC(C)c1ccccc1Cl` (stereo not shown) [Compound 1-99, [2-(4-{4-[1-(2-Chloro-phenyl)-ethoxycarbonylamino]-3-methyl-isoxazol-5-yl}-phenylmethanesulfonyl)-phenyl]-acetic acid], in that order: less than 300 nM and 1000 to 50000 nM.
For the molecule `CCC(C(=O)O)c1ccc(-c2ccc(-c3onc(C)c3NC(=O)O[C@H](C)c3ccccc3)cn2)cc1` (stereo partly shown) [Compound 1-142], the figures for the concentration for half-maximal inhibition (IC50) in experiment [1] and in experiment [2] were less than 300 nM and 1000 to 50000 nM, respectively.
For `Cc1noc(-c2ccc(C3=CCC(C(=O)O)CC3)cc2)c1NC(=O)OC(C)c1ccccc1Cl` (stereo not shown) [Compound 1-66, 4-(4-{4-[1-(2-Chloro-phenyl)-ethoxycarbonylamino]-3-methyl-isoxazol-5-yl}-phenyl)-cyclohex-3-enecarboxylic acid], in that order: less than 300 nM and 1000 to 50000 nM.
For `Cc1noc(-c2ccc(-c3ccc(CC#N)cc3)cc2)c1NC(=O)O[C@H](C)c1ccccc1F` [Compound 2-3, [5-(4′-Cyanomethyl-biphenyl-4-yl)-3-methyl-isoxazol-4-yl]-carbamic acid (R)-1-(2-fluoro-phenyl)-ethyl ester], in that order: less than 300 nM and greater than 50000 nM.
For `Cc1noc(-c2ccc(Cc3ccc(CC(=O)O)cc3)cc2)c1NC(=O)OC(C)c1ccccc1Cl` (stereo not shown) [Compound 1-20, [4-(4-{4-[1-(2-Chloro-phenyl)-ethoxycarbonylamino]-3-methyl-isoxazol-5-yl}-benzyl)-phenyl]-acetic acid], in that order: less than 300 nM and 1000 to 50000 nM.
Turning to `Cc1noc(-c2cccc(-c3cccc(C(=O)O)c3)c2)c1NC(=O)OC(C)c1ccccc1Cl` (stereo not shown) [Compound 1-31, 3′-{4-[1-(2-Chloro-phenyl)-ethoxycarbonylamino]-3-methyl-isoxazol-5-yl}-biphenyl-3-carboxylic acid], the IC50 in experiment [1] and in experiment [2] was 1000 to 50000 nM each time.
For `Cc1noc(-c2ccc(CSc3ccc(CC(=O)O)cc3)cc2)c1NC(=O)OC(C)c1ccccc1Cl` (stereo not shown) [Compound 1-17, [4-(4-{4-[1-(2-Chloro-phenyl)-ethoxycarbonylamino]-3-methyl-isoxazol-5-yl}-benzylsulfanyl)-phenyl]-acetic acid], the values for the 50% inhibitory concentration (IC50) in experiment [1] and in experiment [2] were less than 300 nM and 1000 to 50000 nM, respectively.

The values are drawn from patent publication US20110301142A1, “ANTAGONISTS OF LYSOPHOSPHATIDIC ACID RECEPTORS” (priority 2008, published 2011).
